In ChEMBL document CHEMBL1201862, “PubChem BioAssay data set” (2004):
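Tested at 5 concentrations; 48 h exposure; 96-well plates; endpoints linearly interpolated, else capped at highest concentration. Abbreviation: GI50, concentration required for 50% inhibition of growth.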 The source made the active and inactive calls. No stated cut-off is given here; in the data, active = GI50 up to about 1.1 µM and inactive = higher.

Tests used:
Assay in all cases: inhibition of tumour cell growth, NCI panel, 48 h
[1] = system: SK-MEL-5
[2] = system: DU-145
[3] = system: MDA-MB-231
[4] = system: SK-MEL-28
[5] = system: OVCAR-5
[6] = system: RPMI-8226
[7] = system: NCI-H23
[8] = system: TK-10
[9] = system: PC-3
[10] = system: SNB-75
[11] = system: SW-620
[12] = system: CCRF-CEM
[13] = system: A498
[14] = system: ACHN
[15] = system: HT-29
[16] = system: MOLT-4
[17] = system: Hs-578T
[18] = system: SK-MEL-2
[19] = system: HOP-62
[20] = system: T47D
[21] = system: NCI/ADR-RES
[22] = system: LOX IMVI
[23] = system: MCF7
[24] = system: NCI-H226
[25] = system: NCI-H460
[26] = system: HL-60
[27] = system: OVCAR-8
[28] = system: IGROV-1
[29] = system: SF-539
[30] = system: HCT-116
[31] = system: MDA-MB-435
[32] = system: 786-0
[33] = system: SR
[34] = system: SF-268
[35] = system: SF-295
[36] = system: COLO 205
[37] = system: EKVX
[38] = system: SNB-19
[39] = system: A549
[40] = system: HCT-15
[41] = system: U-251
[42] = system: CAKI-1
[43] = system: SK-OV-3
[44] = system: UACC-62
[45] = system: M14
[46] = system: MDA-N
[47] = system: KM12
[48] = system: K562
[49] = system: HCC 2998
[50] = system: UO-31
[51] = system: OVCAR-4
[52] = system: SN12C
[53] = system: UACC-257
[54] = system: Malme-3M
[55] = system: OVCAR-3
[56] = system: HOP-92
[57] = system: NCI-H522
[58] = system: RXF 393
[59] = system: BT-549

## CN(C)c1ccc(/C(Br)=C2\OC(=O)c3ccccc32)cc1
[1]
  GI50: 77.6 µM (inactive)
[2]
  GI50: > 100 µM (inactive)
[3]
  GI50: > 100 µM (inactive)
[4]
  GI50: > 100 µM (inactive)
[5]
  GI50: 2.95 µM (inactive)
[6]
  GI50: 24.3 µM (inactive)
[7]
  GI50: > 100 µM (inactive)
[8]
  GI50: > 100 µM (inactive)
[9]
  GI50: > 100 µM (inactive)
[10]
  GI50: 80.7 µM (inactive)
[11]
  GI50: 93.5 µM (inactive)
[12]
  GI50: 51.4 µM (inactive)
[13]
  GI50: > 100 µM (inactive)
[14]
  GI50: > 100 µM (inactive)
[15]
  GI50: 42.3 µM (inactive)
[16]
  GI50: 37.2 µM (inactive)
[17]
  GI50: > 100 µM (inactive)
[18]
  GI50: 92.9 µM (inactive)
[19]
  GI50: > 100 µM (inactive)
[20]
  GI50: 11.3 µM (inactive)
[21]
  GI50: 31.8 µM (inactive)
[22]
  GI50: > 100 µM (inactive)
[23]
  GI50: 0.759 µM (active)
[24]
  GI50: 24.4 µM (inactive)
[25]
  GI50: > 100 µM (inactive)
[26]
  GI50: 34 µM (inactive)
[27]
  GI50: > 100 µM (inactive)
[28]
  GI50: > 100 µM (inactive)
[29]
  GI50: > 100 µM (inactive)
[30]
  GI50: > 100 µM (inactive)
[31]
  GI50: 36.1 µM (inactive)
[32]
  GI50: > 100 µM (inactive)
[33]
  GI50: 34.8 µM (inactive)
[34]
  GI50: > 100 µM (inactive)
[35]
  GI50: 76.2 µM (inactive)
[36]
  GI50: 56.1 µM (inactive)
[37]
  GI50: > 100 µM (inactive)
[38]
  GI50: > 100 µM (inactive)
[39]
  GI50: > 100 µM (inactive)
[40]
  GI50: 87.3 µM
[41]
  GI50: > 100 µM (inactive)
[42]
  GI50: > 100 µM (inactive)
[43]
  GI50: > 100 µM (inactive)
[44]
  GI50: > 100 µM (inactive)
[45]
  GI50: > 100 µM (inactive)
[46]
  GI50: 40.1 µM (inactive)
[47]
  GI50: 39.2 µM (inactive)
[48]
  GI50: 59.6 µM (inactive)
[49]
  GI50: > 100 µM (inactive)
[50]
  GI50: > 100 µM (inactive)
[51]
  GI50: > 100 µM (inactive)
[52]
  GI50: > 100 µM (inactive)
[53]
  GI50: > 100 µM (inactive)
[54]
  GI50: 67.1 µM (inactive)

## CCN1CCC(O)(/C=C/c2cccc(C)c2)C(C(=O)/C=C/c2cccc(C)c2)C1 (stereo not drawn)
[55]
  GI50: 3.48 µM (inactive)
[1]
  GI50: 1.88 µM (inactive)
[2]
  GI50: 3.94 µM (inactive)
[3]
  GI50: 3.35 µM (inactive)
[4]
  GI50: 2.19 µM (inactive)
[5]
  GI50: 2.64 µM (inactive)
[6]
  GI50: 1.77 µM (inactive)
[7]
  GI50: 2.21 µM (inactive)
[8]
  GI50: 1.71 µM (inactive)
[9]
  GI50: 13.3 µM (inactive)
[10]
  GI50: 2.09 µM (inactive)
[56]
  GI50: 2.17 µM (inactive)
[11]
  GI50: 2.29 µM (inactive)
[12]
  GI50: 1.57 µM (inactive)
[57]
  GI50: 2.21 µM (inactive)
[13]
  GI50: 2.03 µM (inactive)
[14]
  GI50: 1.59 µM (inactive)
[15]
  GI50: 1.52 µM (inactive)
[16]
  GI50: 2.43 µM (inactive)
[17]
  GI50: 2.33 µM (inactive)
[18]
  GI50: 2.31 µM (inactive)
[20]
  GI50: 2.7 µM (inactive)
[21]
  GI50: 2.19 µM (inactive)
[22]
  GI50: 2.17 µM (inactive)
[23]
  GI50: 1.9 µM (inactive)
[24]
  GI50: 2.42 µM (inactive)
[25]
  GI50: 2.12 µM (inactive)
[26]
  GI50: 61.4 µM (inactive)
[27]
  GI50: 2.87 µM (inactive)
[28]
  GI50: 1.94 µM (inactive)
[29]
  GI50: 2.17 µM (inactive)
[30]
  GI50: 2.18 µM (inactive)
[58]
  GI50: 1.67 µM (inactive)
[31]
  GI50: 2.02 µM (inactive)
[32]
  GI50: 2.26 µM (inactive)
[33]
  GI50: 3.74 µM (inactive)
[34]
  GI50: 1.74 µM (inactive)
[35]
  GI50: 2.28 µM (inactive)
[36]
  GI50: 1.95 µM (inactive)
[37]
  GI50: 2.04 µM (inactive)
[38]
  GI50: 4.31 µM (inactive)
[39]
  GI50: 2.29 µM (inactive)
[40]
  GI50: 2.25 µM
[41]
  GI50: 1.72 µM (inactive)
[42]
  GI50: 2 µM (inactive)
[43]
  GI50: 3.35 µM (inactive)
[44]
  GI50: 1.82 µM (inactive)
[45]
  GI50: 2.58 µM (inactive)
[46]
  GI50: 2.66 µM (inactive)
[47]
  GI50: 1.56 µM (inactive)
[48]
  GI50: 2.98 µM (inactive)
[49]
  GI50: 1.6 µM (inactive)
[50]
  GI50: 1.69 µM (inactive)
[51]
  GI50: 4.31 µM (inactive)
[52]
  GI50: 2.47 µM (inactive)
[53]
  GI50: 2.53 µM (inactive)
[54]
  GI50: 1.57 µM (inactive)

## COc1ccc(-n2c3c(c4cc(O)ccc42)Cc2ccccc2C3=O)cc1
[55]
  GI50: 21.4 µM (inactive)
[1]
  GI50: 39.2 µM (inactive)
[59]
  GI50: > 100 µM (inactive)
[2]
  GI50: > 100 µM (inactive)
[3]
  GI50: 20.1 µM (inactive)
[4]
  GI50: 28.1 µM (inactive)
[6]
  GI50: 3.76 µM (inactive)
[7]
  GI50: > 100 µM (inactive)
[8]
  GI50: 58.7 µM (inactive)
[9]
  GI50: 2.2 µM (inactive)
[10]
  GI50: 2.19 µM (inactive)
[11]
  GI50: 57 µM (inactive)
[12]
  GI50: 4.9 µM (inactive)
[13]
  GI50: 90.6 µM (inactive)
[15]
  GI50: 53.2 µM (inactive)
[16]
  GI50: 11.5 µM (inactive)
[17]
  GI50: > 100 µM (inactive)
[18]
  GI50: 65.3 µM (inactive)
[19]
  GI50: 42.7 µM (inactive)
[21]
  GI50: 73.8 µM (inactive)
[22]
  GI50: 35.9 µM (inactive)
[23]
  GI50: 9.16 µM (inactive)
[24]
  GI50: 63.7 µM (inactive)
[25]
  GI50: 16.1 µM (inactive)
[26]
  GI50: > 100 µM (inactive)
[27]
  GI50: 48 µM (inactive)
[28]
  GI50: 29.7 µM (inactive)
[29]
  GI50: 34.9 µM (inactive)
[30]
  GI50: 27.6 µM (inactive)
[58]
  GI50: < 0.01 µM (active)
[31]
  GI50: 64.6 µM (inactive)
[32]
  GI50: 50.2 µM (inactive)
[33]
  GI50: 41.9 µM (inactive)
[34]
  GI50: 26.6 µM (inactive)
[35]
  GI50: 16.5 µM (inactive)
[36]
  GI50: 11.7 µM (inactive)
[38]
  GI50: > 100 µM (inactive)
[39]
  GI50: 35.6 µM (inactive)
[40]
  GI50: 25.1 µM
[41]
  GI50: 45.2 µM (inactive)
[42]
  GI50: 30.2 µM (inactive)
[43]
  GI50: 16 µM (inactive)
[44]
  GI50: 48.5 µM (inactive)
[45]
  GI50: 38.2 µM (inactive)
[46]
  GI50: 65.6 µM (inactive)
[47]
  GI50: 28.8 µM (inactive)
[48]
  GI50: 31.3 µM (inactive)
[50]
  GI50: > 100 µM (inactive)
[51]
  GI50: 7.83 µM (inactive)
[52]
  GI50: 57.3 µM (inactive)
[53]
  GI50: > 100 µM (inactive)
[54]
  GI50: > 100 µM (inactive)
